Assay results taken from patent US6399614B1, “1-(N-phenylaminoalkyl)piperazine derivatives substituted at position 2 of the phenyl ring” (Recordati S.A. Chemical and Pharmaceutical Company, priority 1997, dated 2002).

Legend:
[1] = target: T1, pre-synaptic 5-HT1A receptor (Mus musculus, UniProt Q64264); test: Antagonism of hypothermia induced by 8-OH-DPAT in mice (pre-synaptic antagonism); format: in vivo; conditions: for ED50: mouse, iv, read-out: Pre-synaptic 5-HT1A ID50, heading: Pre-synaptic 5-HT1A ID50, dose blocking 50% of hypothermia induced by 0.5 mg/kg s.c. 8-OH-DPAT in mice, compound i.v.
T1 construct: from tissue; host or cells: whole animal, male CD-1 mice
T1 sequence (Q64264 1-421): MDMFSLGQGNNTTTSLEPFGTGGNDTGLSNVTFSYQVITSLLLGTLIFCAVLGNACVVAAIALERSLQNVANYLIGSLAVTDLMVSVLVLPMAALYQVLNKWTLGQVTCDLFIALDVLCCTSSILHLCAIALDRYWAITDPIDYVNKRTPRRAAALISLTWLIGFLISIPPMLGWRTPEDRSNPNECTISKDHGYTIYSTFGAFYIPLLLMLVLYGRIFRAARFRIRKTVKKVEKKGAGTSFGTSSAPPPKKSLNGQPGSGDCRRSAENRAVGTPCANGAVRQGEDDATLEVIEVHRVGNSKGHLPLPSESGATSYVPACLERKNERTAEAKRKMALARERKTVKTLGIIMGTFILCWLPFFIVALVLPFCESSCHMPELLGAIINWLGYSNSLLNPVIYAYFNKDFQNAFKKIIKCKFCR
Description: The antagonistic effect of the 5-HT1A receptor antagonists of the invention on hypothermia induced by 8-OH-DPAT was evaluated by the method of Moser (Moser, Eur.J.Pharmacol., 193:165, 1991) with minor modifications as described below. Male CD-1 mice (28-38 g) obtained from Charles River (Italy) were housed in a climate-controlled room (temperature 22±2 C.; humidity 55±15%) and maintained on a 12 h light/dark cycle with free access to food and water. On the day of experiment, mice were placed singly in clear plastic boxes under the same ambient conditions. Body temperature was measured by the insertion of a temperature probe (Termist TM-S, LSI) into the rectum to a depth of 2 cm. Rectal temperature was measured immediately prior to intravenous injection of the test compound. All animals then received 8-OH-DPAT (0.5 mg/kg s.c.) and their temperature was measured 30 min later. For each animal, temperature changes were calculated with respect to pretreatment values and the mean values were calculated for each treatment group. A linear regression equation was used in order to evaluate ID50 values, defined as the dose of antagonist needed to block 50% of the hypothermic effect induced by 0.5 mg/kg 8-OH-DPAT administered subcutaneously.

[2] = test system: α2 adrenergic receptors; test: Radioreceptor binding, native α2-adrenoceptors, rat cerebral cortex ([3H]rauwolscine); conditions: Table 3A not given
Description: (§1) Binding studies on native α2 adrenergic receptors (Diop L. et al, J. Neurochem. 41, 710-715, 1983), and 5-HT2A serotonergic receptors (Craig A. and Kenneth J., Life Sci. 38, 117-127, 1986) were carried out in membranes of rat cerebral cortex. Male Sprague Dawley rats (200-300 g, SD Harlan/Nossan, Italy) were killed by cervical dislocation and cerebral cortexes were excised and immediately frozen in liquid nitrogen and stored at −70° C. until use. Tissues were homogenized (2×20 sec) in 50 volumes of cold 50 mM Tris-HCl buffer pH 7.4, using a Polytron homogenizer (speed 7). Homogenates were centrifuged at 49000×g for 10 min, resuspended in 50 volumes of the same buffer, incubated at 37° C. for 15 min and centrifuged and resuspended twice more. […] Non-specific binding was determined in the presence of 10 μM phentolamine (a2-adrenergic receptors) or 2 μM ketanserin (5-HT2A serotoninergic receptors). […] The filters are then washed with ice-cold buffer and the radioactivity retained on the filters was counted by liquid scintillation spectrometry.
(§2) The inhibition of specific binding of the radioligands by the tested drugs was analyzed to estimate the IC50 value by using the non-linear curve-fitting program Allfit (De Lean et al., Am. J. Physiol. 235, E97-E102, 1978). […]

[3] = target: T2, 5-HT2A serotonergic receptors (Rattus norvegicus, UniProt P14842); test: Radioreceptor binding, native 5-HT2A receptors, rat cerebral cortex ([3H]ketanserin); conditions: Table 3A not given
T2 construct: from tissue; host or cells: rat cerebral cortex membranes
Description: as §1, §2

T2 sequence (P14842 whole entry): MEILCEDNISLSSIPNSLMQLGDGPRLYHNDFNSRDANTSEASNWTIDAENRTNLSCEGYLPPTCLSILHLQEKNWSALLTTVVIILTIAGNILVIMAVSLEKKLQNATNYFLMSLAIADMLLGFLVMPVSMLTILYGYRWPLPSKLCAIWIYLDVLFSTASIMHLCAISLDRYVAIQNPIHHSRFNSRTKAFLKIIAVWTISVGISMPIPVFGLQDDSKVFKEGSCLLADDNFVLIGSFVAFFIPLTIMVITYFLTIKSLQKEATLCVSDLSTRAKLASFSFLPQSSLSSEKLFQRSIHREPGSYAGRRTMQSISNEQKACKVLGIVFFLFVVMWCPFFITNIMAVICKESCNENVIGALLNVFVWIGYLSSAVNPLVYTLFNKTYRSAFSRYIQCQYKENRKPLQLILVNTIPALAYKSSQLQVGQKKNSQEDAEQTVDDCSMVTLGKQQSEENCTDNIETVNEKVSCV

| fold less active than compound of Example 2, pre-synaptic model ([1]; hypothermia model in mice) | ED50 [1] | selectivity for the 5-HT1A receptor versus the a2-adrenoceptors [2] | selectivity for the 5-HT1A receptor versus the 5-HT2A [3] | Structure (SMILES) |
| --- | --- | --- | --- | --- |
| at least 10 fold | 0.221 mg/kg |  |  | COc1ccccc1N1CCN(CCN(C(=O)C2CCCCC2)c2ccccc2)CC1 [Compound A, 1-(N-phenyl-N-cyclohexylcarbonyl-2-aminoethyl)-4-(2-methoxyphenyl)piperazine, reference compound] |
|  | 0.02 mg/kg | much more selective than compound A | much more selective than compound A | COc1ccccc1N1CCN(CCN(C(=O)C2CCCCC2)c2ccccc2[N+](=O)[O-])CC1 [Example 2, 1-[N-(2-nitrophenyl)-N-cyclohexylcarbonyl-2-aminoethyl]-4-(2-methoxyphenyl) piperazine] |
